What is called melting point is the temperature, or range, at which the solid turns liquid.

For the compound `Cc1ccc(OC2=C(Oc3ccc(C)cc3)C(F)(F)C(F)(F)C2(F)F)cc1`, the melting point fell in the range of 46 to 48 °C. Then `COC(=O)[C@H](CC(C)C)NC(=O)c1ccco1`, with 88 to 90 °C; and `CCOCS(=O)(=O)c1ccc(C(CC2CCCC2)C(=O)Nc2nc3ccc(OC)nc3s2)cc1` (centres undefined), with 158 to 160 °C; and `COc1ccc(Nc2ccncc2)cc1`, with 129 to 134 °C. Then `CC(C)C[C@H]1C(=O)NC2CCC(=O)N21` (some centres undefined), with 156 to 157 °C. Then `CCOC(=O)C1(C(=O)Nc2cc(Cl)c(Cl)cc2C)CC1`, with 105 to 107 °C. With `COC(=O)C1=C(C)NC(C)=C(C(=O)OCC2CCCO2)C1c1cccc(C(F)(F)F)c1` (centres undefined), the melting point is 108 to 110 °C.

In turn, `CNC(=O)c1cc(F)c(Cl)cc1F` returned a melting point of 128 °C. Then `CCCCCCC(NS(=O)(=O)c1ccc(Cl)cc1)C(=O)Nc1ccc(CC(=O)O)cc1` (racemic), with 192 to 193 °C.

Turning to `Cc1ccc(S(=O)(=O)NC(=O)c2cc(Oc3ccc(C(F)(F)F)cc3Cl)ccc2[N+](=O)[O-])cc1`, the melting point was 150 °C.

`CC(C)(C)c1ccc(CCC(O)CCC2CCCCCC2)cc1NC(=O)CC1c2ccccc2Oc2ccccc21` (centres undefined) showed a melting point of 146 to 147 °C. On to `COc1ccc(Cn2c(=O)[nH]c3cc([N+](=O)[O-])ccc3c2=O)cc1`, for which the melting point was in the range of 244 to 246 °C. `CC(F)(F)c1cccc(C[C@H](N)[C@H](O)c2ccc(F)cc2)c1` (racemic): the melting point lay in the range of 101 to 102 °C. For the compound `CCCOc1ccc(C(=O)OC)cc1C(C)=O`, the melting point fell in the range of 44 to 47 °C. On to `CCCCn1c(=O)c(C(=O)OCC)c(O)c2ccccc21`, for which the melting point lay in the range of 147 to 148 °C. Next, `Cc1cc2ccc(Cl)c(C)c2nc1-n1cncn1`: 147 to 148 °C; `Cc1c(OCCCSc2ccc3ncc([N+](=O)[O-])n3n2)ccnc1CO`: 135 to 136 °C. Then `COC(=O)COc1ccc(C(=O)C(C)(C)Br)cc1`, with 46 to 50 °C; and `COc1ccc(C(=O)Nc2cc(NC(=O)c3cccc(N(C)C)c3)ccc2Br)cc1OC`, with 184 °C. Then `O=C(O)c1cn(-c2ccc(F)cc2)c(C=Cc2ccncc2)cc1=O`, with 205 to 215 °C. Turning to `O=Cc1c(Cl)ccc(C2OCCO2)c1Cl`, the melting point fell in the range of 96 to 98 °C.

Turning to `COc1ccc(-n2cc(C(=O)O)c3nc4c(C)cccc4cc3c2=O)cc1OC`, the melting point is 297 to 298 °C. On to `CN1CCN(NS(=O)(=O)c2cc([N+](=O)[O-])c(Cl)s2)CC1`, for which the melting point came to 91 °C. With `Cc1cc(Oc2ccc(Cl)c(C(F)(F)F)c2)c(C)cc1N=CNC#N`, the melting point fell in the range of 111 to 114 °C. Next, `CN(C)C(=O)c1c(CNS(=O)(=O)c2cccc(Cl)c2)nn(-c2ccc(Cl)cc2Cl)c1-c1ccc(Cl)cc1`: 178 °C. Take `S=C(Cc1ccc(Cl)cc1)N1CCOCC1`: the melting point lay in the range of 175 to 177 °C. Turning to `COc1cc(N)c(Cl)cc1C(=O)NCC1CCN(CCCCNC(=O)c2cccc3ccccc23)CC1`, the melting point lay within 138 to 141 °C. Then `COc1cc2c(cc1C(F)(F)F)N(C(=O)Nc1ccc(Oc3cccnc3)nc1)CC2`, with 202 to 204 °C. Then `CC(=O)Nc1ccc(C(=O)N2CCOCC2)cc1[N+](=O)[O-]`, with 128 to 132 °C; and `OCCc1nccn1Cc1coc(-c2ccc(OCc3coc(/C=C/c4ccc(Cl)cc4F)n3)cc2)n1`, with 170 to 172 °C.

Take `CCOC(=O)CN(C(=O)CC)c1c(SC(F)(F)F)c(C)nn1-c1c(Cl)cc(C(F)(F)F)cc1Cl`: the melting point was 73 to 74 °C.

On to `CN1CCN(c2cnc3cc(Cl)ccc3n2)CC1`, for which the melting point was in the range of 151 to 152 °C. Then `NS(=O)(=O)c1cccc(-c2cccc(-c3nc(-c4ccc(F)cc4)cc(C(F)(F)F)n3)c2)c1`, with 208 °C.

The compound `CC(=O)c1cccn1N1C(=O)c2ccccc2C1=O` came in with a melting point of 204 to 205 °C.

(Values after a melting point compilation (Tetko et al.; mined from patent text by program, amines drawn as free bases though some values may be those of a salt).)
